This passage reports EC50 results from patent US10118902B2 (Sanford Burnham Prebys Medical Discovery Institute, priority 2014, dated 2018).

As a reminder, the EC50 is the concentration at which the effect is half-maximal.

Some results are limits rather than exact numbers.

In the test the target is neurotensin receptor 1 (NTR1) (Homo sapiens (Human), UniProt P30989). In words: NTR1 dose response, high-content imaging beta-arrestin-GFP assay in NTR1-U2OS cells. The format is cell-based. Particulars: read-out: EC50.
Sequence of neurotensin receptor 1 (NTR1) (P30989 whole entry, species assumed): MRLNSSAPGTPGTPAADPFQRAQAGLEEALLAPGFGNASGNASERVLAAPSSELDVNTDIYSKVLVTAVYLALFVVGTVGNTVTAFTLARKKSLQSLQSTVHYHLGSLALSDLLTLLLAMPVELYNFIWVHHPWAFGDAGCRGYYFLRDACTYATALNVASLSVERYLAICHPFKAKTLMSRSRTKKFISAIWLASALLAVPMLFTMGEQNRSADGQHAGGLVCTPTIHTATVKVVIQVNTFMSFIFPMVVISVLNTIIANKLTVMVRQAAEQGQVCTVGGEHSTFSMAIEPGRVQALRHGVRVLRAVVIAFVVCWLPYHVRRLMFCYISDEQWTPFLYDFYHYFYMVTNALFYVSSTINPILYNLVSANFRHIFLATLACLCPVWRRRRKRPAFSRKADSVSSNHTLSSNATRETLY
Regarding `CCCN(CCC)c1ccc2nc(N(C)C)nc(N3CCC(c4ccccc4OC)CC3)c2c1` [Example 96, 4-(4-(2-methoxyphenyl)piperidin-1-yl)-N2,N2-dimethyl-N6,N6-dipropylquinazoline-2,6-diamine], the EC50 was more than 10 µM. As for `CCCN(C)c1ccc2nc(NC3CCC3)nc(N3CCC(c4ccccc4OC)CC3)c2c1` [Example 97, N2-Cyclobutyl-4-[4-(2-methoxy-phenyl)-piperidin-1-yl]-N6-methyl-N6-propyl-quinazoline-2,6-diamine], the EC50 is more than 10 µM. For the compound `COc1ccccc1C1CCN(c2nc(NC3CCC3)nc3ccc(N(C)CCO)cc23)CC1` [Example 98, 2-((2-(cyclobutylamino)-4-(4-(2-methoxyphenyl)piperidin-1-yl)quinazolin-6-yl)(methyl)amino)ethanol], the EC50 is more than 10 µM. To `COc1ccccc1N1CC2(C1)CN(c1nc(C3CC3)nc3ccc(N(C)CCO)cc13)C2` [Example 99, 2-({2-cyclopropyl-4-[6-(2-methoxy-phenyl)-2,6-diaza-spiro [3.3]hept-2-yl]-quinazolin-6-yl}-methyl-amino)-ethanol] belongs 2 to 10 µM. The result for `CCCN(C)c1ccc2nc(C3CC3)nc(N3CC4(CN(c5ccccc5OC)C4)C3)c2c1` [Example 100, {2-cyclopropyl-4-[6-(2-methoxy-phenyl)-2,6-diaza-spiro [3.3]hept-2-yl]-quinazolin-6-yl}-methyl-propyl-amine] reads 2 to 10 µM; that for `COc1ccccc1N1CC2(C1)CN(c1nc(C3CC3)nc3ccc(N(C)CCN4CCOCC4)cc13)C2` [Example 101, {2-cyclopropyl-4-[6-(2-methoxy-phenyl)-2,6-diaza-spiro [3.3]hept-2-yl]-quinazolin-6-yl}-methyl-(2-morpholin-4-yl-ethyl)-amine], more than 10 µM.

On to `CCCN(C)c1ccc2nc(C3CC3)nc(N3CCC(c4ccccc4OC)CC3=O)c2c1` (stereo not drawn) [Example 102, 1-[2-cyclopropyl-6-(methyl-propyl-amino)-quinazolin-4-yl]-4-(2-methoxy-phenyl)-piperidin-2-one], for which the EC50 is more than 10 µM.

For `COc1ccccc1C1CCN(c2nc(C3CC3)nc3ccc(N(C)CCO)c(Cl)c23)CC1` [Example 103, 2-({5-chloro-2-cyclopropyl-4-[4-(2-methoxy-phenyl)-piperidin-1-yl]-quinazolin-6-yl}-methyl-amino)-ethanol], the EC50 is less than 0.5 µM. On to `CCCN(C)c1cc2c(N3CCC(c4ccccc4OC)CC3)nc(C3CC3)nc2cc1Cl` [Example 104, {7-chloro-2-cyclopropyl-4-[4-(2-methoxy-phenyl)-piperidin-1-yl]-quinazolin-6-yl}-methyl-propyl-amine], for which the concentration giving a half-maximal response (EC50) is more than 10 µM. Take `CCCN(C)c1cc2c(N3CCC(c4ccccc4OC)CC3)nc(C3CC3)nc2cc1F` [Example 105, {2-cyclopropyl-7-fluoro-4-[4-(2-methoxy-phenyl)-piperidin-1-yl]-quinazolin-6-yl}-methyl-propyl-amine]: the EC50 lay in the range of 2 to 10 µM. For the compound `CCCN(C)c1cc2c(N3CCC(c4ccccc4N4CCC4)CC3)nc(C3CC3)nc2cc1F` [Example 106, {4-[4-(2-azetidin-1-yl-phenyl)-piperidin-1-yl]-2-cyclopropyl-7-fluoro-quinazolin-6-yl}-methyl-propyl-amine], the EC50 is more than 10 µM. To `COc1ccccc1C1CCN(c2nc(C3CC3)nc3cc(Cl)c(N(C)CCO)cc23)CC1` [Example 107, 2-({7-chloro-2-cyclopropyl-4-[4-(2-methoxy-phenyl)-piperidin-1-yl]-quinazolin-6-yl}-methyl-amino)-ethanol] belongs 0.5 to 2 µM; to `COc1cc(F)ccc1C1CCN(c2nc(C3CC3)nc3ccc(N(C)CCO)cc23)CC1` [Example 108, 2-({2-cyclopropyl-4-[4-(4-fluoro-2-methoxy-phenyl)-piperidin-1-yl]-quinazolin-6-yl}-methyl-amino)-ethanol], 0.5 to 2 µM. To `COc1ccc(F)cc1C1CCN(c2nc(C3CC3)nc3ccc(N(C)CCO)cc23)CC1` [Example 109, 2-({2-cyclopropyl-4-[4-(5-fluoro-2-methoxy-phenyl)-piperidin-1-yl]-quinazolin-6-yl}-methyl-amino)-ethanol] belongs 0.5 to 2 µM.

As for `COc1cc(F)ccc1C1CCN(c2nc(C3CC3)nc3cc(F)c(N(C)CCO)cc23)CC1` [Example 110, 2-({2-cyclopropyl-7-fluoro-4-[4-(4-fluoro-2-methoxy-phenyl)-piperidin-1-yl]-quinazolin-6-yl}-methyl-amino)-ethanol], the EC50 was in the range of 0.5 to 2 µM. Take `COc1ccc(F)cc1C1CCN(c2nc(C3CC3)nc3cc(F)c(N(C)CCO)cc23)CC1` [Example 111, 2-({2-cyclopropyl-7-fluoro-4-[4-(5-fluoro-2-methoxy-phenyl)-piperidin-1-yl]-quinazolin-6-yl}-methyl-amino)-ethanol]: the EC50 is 0.5 to 2 µM. To `COc1cc(F)ccc1C1CCN(c2nc(C3CC3)nc3cc(Cl)c(N(C)CCO)cc23)CC1` [Example 112, 2-({7-chloro-2-cyclopropyl-4-[4-(4-fluoro-2-methoxy-phenyl)-piperidin-1-yl]-quinazolin-6-yl}-methyl-amino)-ethanol] belongs more than 10 µM; to `COc1ccc(F)cc1C1CCN(c2nc(C3CC3)nc3cc(Cl)c(N(C)CCO)cc23)CC1` [Example 113, 2-({7-chloro-2-cyclopropyl-4-[4-(5-fluoro-2-methoxy-phenyl)-piperidin-1-yl]-quinazolin-6-yl}-methyl-amino)-ethanol], 2 to 10 µM. The result for `COc1cc(F)ccc1C1CCN(c2nc(C3CC3)nc3cc(C)c(N(C)CCO)cc23)CC1` [Example 114, 2-({2-cyclopropyl-4-[4-(4-fluoro-2-methoxy-phenyl)-piperidin-1-yl]-7-methyl-quinazolin-6-yl}-methyl-amino)-ethanol] reads 2 to 10 µM; that for `COc1ccc(F)cc1C1CCN(c2nc(C3CC3)nc3cc(C)c(N(C)CCO)cc23)CC1` [Example 115, 2-({2-cyclopropyl-4-[4-(5-fluoro-2-methoxy-phenyl)-piperidin-1-yl]-7-methyl-quinazolin-6-yl}-methyl-amino)-ethanol], 2 to 10 µM.

`Cc1cc2nc(C3CC3)nc(N3CCC(c4ccccc4N(C)C)CC3)c2cc1N(C)CCO` [Example 116, 2-({2-cyclopropyl-4-[4-(2-dimethylamino-phenyl)-piperidin-1-yl]-7-methyl-quinazolin-6-yl}-methyl-amino)-ethanol]: the EC50 is 0.5 to 2 µM. The result for `COc1ccccc1C1CCN(c2nc(C3CC3)nc3cc(C)c(N(C)CCO)cc23)CC1` [Example 117, 2-({2-cyclopropyl-4-[4-(2-methoxy-phenyl)-piperidin-1-yl]-7-methyl-quinazolin-6-yl}-methyl-amino)-ethanol] reads less than 0.5 µM; that for `CN(C)c1ccccc1C1CCN(c2nc(C3CC3)nc3cc(Cl)c(N(C)CCO)cc23)CC1` [Example 118, 2-({7-chloro-2-cyclopropyl-4-[4-(2-dimethylamino-phenyl)-piperidin-1-yl]-quinazolin-6-yl}-methyl-amino)-ethanol], 2 to 10 µM. As to `CN(CCO)c1cc2c(N3CCC(c4ccccc4N4CCC4)CC3)nc(C3CC3)nc2cc1Cl` [Example 119, 2-({4-[4-(2-azetidin-1-yl-phenyl)-piperidin-1-yl]-7-chloro-2-cyclopropyl-quinazolin-6-yl}-methyl-amino)-ethanol], the EC50 is 2 to 10 µM.

`CN(C)c1ccccc1C1CCN(c2nc(C3CC3)nc3cc(F)c(N(C)CCO)cc23)CC1` [Example 120, 2-({2-cyclopropyl-4-[4-(2-dimethylamino-phenyl)-piperidin-1-yl]-7-fluoro-quinazolin-6-yl}-methyl-amino)-ethanol]: the EC50 is less than 0.5 µM. As to `Cc1cc2nc(C3CC3)nc(N3CCC(c4ccccc4N4CCC4)CC3)c2cc1N(C)CCO` [Example 121, 2-({4-[4-(2-azetidin-1-yl-phenyl)-piperidin-1-yl]-2-cyclopropyl-7-methyl-quinazolin-6-yl}-methyl-amino)-ethanol], the 50% effective concentration (EC50) lay within 0.5 to 2 µM. To `CCCN(C)c1cc2c(N3CCC(c4ccccc4OC)CC3)nc(C3CC3)nc2cc1C` [Example 122, {2-cyclopropyl-4-[4-(2-methoxy-phenyl)-piperidin-1-yl]-7-methyl-quinazolin-6-yl}-methyl-propyl-amine] belongs 0.5 to 2 µM.

With `CCCN(C)c1cc2c(N3CCC(c4cc(F)ccc4OC)CC3)nc(C3CC3)nc2cc1C` [Example 123, {2-cyclopropyl-4-[4-(5-fluoro-2-methoxy-phenyl)-piperidin-1-yl]-7-methyl-quinazolin-6-yl}-methyl-propyl-amine], the EC50 was more than 10 µM. Turning to `COc1ccccc1C1CCN(c2nc(C3CC3)nc3c(C)cc(N(C)CCO)cc23)CC1` [Example 125, 2-({2-cyclopropyl-4-[4-(2-methoxy-phenyl)-piperidin-1-yl]-8-methyl-quinazolin-6-yl}-methyl-amino)-ethanol], the EC50 is less than 0.5 µM. The result for `COc1ccccc1C1CCN(c2nc(C3CC3)nc3ccc(N(C)CCO)c(C)c23)CC1` [Example 126, 2-({2-cyclopropyl-4-[4-(2-methoxy-phenyl)-piperidin-1-yl]-5-methyl-quinazolin-6-yl}-methyl-amino)-ethanol] reads 0.5 to 2 µM; that for `CCCN(C)c1cccc2c(N3CCC(c4ccccc4OC)CC3)nc(C3CC3)nc12` [Example 128, {2-cyclopropyl-4-[4-(2-methoxy-phenyl)-piperidin-1-yl]-quinazolin-8-yl}-methyl-propyl-amine], more than 10 µM; that for `COc1ccccc1C1CCN(c2nc(C3CC3)nc3c(N(C)CCN4CCOCC4)cccc23)CC1` [Example 129, {2-cyclopropyl-4-[4-(2-methoxy-phenyl)-piperidin-1-yl]-quinazolin-8-yl}-methyl-(2-morpholin-4-yl-ethyl)-amine], more than 10 µM. In the case of `COc1ccccc1C1CCN(c2nc(C3CC3)nc3c(Cl)cc(N(C)CCO)cc23)CC1` [Example 130, 2-({8-chloro-2-cyclopropyl-4-[4-(2-methoxy-phenyl)-piperidin-1-yl]-quinazolin-6-yl}-methyl-amino)-ethanol], the EC50 was less than 0.5 µM.
